From patent US10322106B2, “Combinations of amisulpride and another anti-emetic for treating nausea and vomiting” (Acacia Pharma Limited, priority 2015, dated 2019)

Assays:
[1] = tested on: cisplatin-induced nausea and vomiting; assay: Study 1: open label, ascending dose Phase II study of intravenous amisulpride in the prevention of cisplatin-induced nausea and vomiting; assay type: in vivo, human
Description: This study was designed to find the optimum dose range of IV amisulpride for the kit and method of the invention. This was an open label, ascending dose, Phase II study to determine the minimum effective dose of intravenous amisulpride in the prevention of cisplatin-induced nausea and vomiting. The number of patients evaluated was 51. Doses of amisulpride (racemic mixture) administered were 2.5, 7.5 and 20 mg. A 20 mg dose of amisulpride was also administered with a standard dose of IV ondansetron.

[2] = tested on: cisplatin-induced emesis; conditions: ferrets; higher dosages; cited from earlier work
[3] = tested on: chemotherapy-induced nausea and vomiting (cisplatin or cyclophosphamide with epirubicin or doxorubicin); assay: Study 2: randomised, double blind Phase II study of oral amisulpride for prevention of acute and delayed phase chemotherapy-induced nausea and vomiting; assay type: in vivo, human
Description: A randomised, double blind Phase II clinical study was conducted to characterise the dose-response of oral amisulpride for the prevention of acute and delayed phase nausea and vomiting in male and female patients. The patent population consisted of adult, chemotherapy-naïve cancer patients, receiving a first infusion of either cisplatin chemotherapy at a dose of 70 mg/m^2 or greater, or a combination of cyclophosphamide (500-1500 mg/m^2) and either epirubicin (60-100 mg/m^2) or doxorubicin (40-60 mg/m^2) for breast cancer. All patients received an intravenous injection of 20 mg of amisulpride (racemic mixture) and an intravenous injection of 8-16 mg ondansetron on the day of chemotherapy administration (i.e. day 1). The oral doses of amisulpride (racemic mixture) studied, along with placebo, were 10 mg, 20 mg or 40 mg each administered once per day on days 2-4 after chemotherapy. Specifically one capsule of amisulpride or its matching placebo, were taken as early as practically possible after waking of the patients each morning on days 2, 3 and 4. […] “Delayed phase response” means complete response (composite endpoint defined as no voting/retching and no use of rescue medication) in the period 24-120 hrs after chemo. There are other benefits of using a kit of the invention compared to three-drug regimen, such as reduced side-effects and better patient compliance.

[4] = oral 10 mg AMI days 2-4 after IV OND + 20 mg AMI day 1, all subjects
[5] = oral 10 mg AMI days 2-4 after IV OND + 20 mg AMI day 1, patients with acute phase CR
[6] = oral 20 mg AMI days 2-4 after IV OND + 20 mg AMI day 1, all subjects
[7] = oral 20 mg AMI days 2-4 after IV OND + 20 mg AMI day 1, patients with acute phase CR
[8] = oral 40 mg AMI days 2-4 after IV OND + 20 mg AMI day 1, all subjects
[9] = oral 40 mg AMI days 2-4 after IV OND + 20 mg AMI day 1, patients with acute phase CR

CCN1CCCC1CNC(=O)c1cc(S(=O)(=O)CC)c(N)cc1OC (racemic) [amisulpride]
No emesis (vomiting/retching) ([1]; 2.5 mg IV amisulpride): 0/5 | No significant nausea ([1]; 2.5 mg IV amisulpride): 1/5 | No emesis (vomiting/retching) ([1]; 7.5 mg IV amisulpride): 0/5 | No significant nausea ([1]; 7.5 mg IV amisulpride): 1/5 | No emesis (vomiting/retching) ([1]; 20 mg IV amisulpride): 3/18 | No significant nausea ([1]; 20 mg IV amisulpride): 12/18 | Protection from nausea, dose-relationship ([1]; IV amisulpride from 2.5 mg to 20 mg): positive dose-relationship | inhibiting cisplatin-induced emesis, dose dependence in words [2]: less effective at higher dosages | Delayed phase response (complete response 24-120 hrs after chemo), in words ([3]; 10 mg oral amisulpride days 2-4, acute-phase responders): significantly better than placebo | CR, 0-120 h [3, 4]: 36% | CR, 0-120 h (number of subjects) [3, 4]: 21 | CR, 24-120 h [3, 4]: 46% | CR, 24-120 h (number of subjects) [3, 4]: 27 | Nausea, 0-120 h [3, 4]: 68% | Nausea, 0-120 h (number of subjects) [3, 4]: 40 | Nausea, 24-120 h [3, 4]: 63% | Nausea, 24-120 h (number of subjects) [3, 4]: 37 | Rescue medication use, 0-120 h [3, 4]: 54% | Rescue medication use, 0-120 h (number of subjects) [3, 4]: 32 | Rescue medication use, 24-120 h [3, 4]: 41% | Rescue medication use, 24-120 h (number of subjects) [3, 4]: 26 | Vomiting, 0-120 h [3, 4]: 59% | Vomiting, 0-120 h (number of subjects) [3, 4]: 35 | Vomiting, 24-120 h [3, 4]: 46% | Vomiting, 24-120 h (number of subjects) [3, 4]: 27 | CR, 24-120 h ([3]; oral 10 mg AMI days 2-4 after IV OND + 20 mg AMI day 1, all subjects, listed as AMI): 46% | CR, 24-120 h [3, 5]: 75% | CR, 24-120 h (number of subjects) [3, 5]: 21 | Nausea, 24-120 h [3, 5]: 32% | Nausea, 24-120 h (number of subjects) [3, 5]: 9 | Rescue medication use, 24-120 h [3, 5]: 14% | Rescue medication use, 24-120 h (number of subjects) [3, 5]: 4 | Vomiting, 24-120 h [3, 5]: 21% | Vomiting, 24-120 h (number of subjects) [3, 5]: 6 | CR, 0-120 h [3, 6]: 25% | CR, 0-120 h (number of subjects) [3, 6]: 17 | CR, 24-120 h [3, 6]: 31% | CR, 24-120 h (number of subjects) [3, 6]: 21 | Nausea, 0-120 h [3, 6]: 72% | Nausea, 0-120 h (number of subjects) [3, 6]: 48 | Nausea, 24-120 h [3, 6]: 69% | Nausea, 24-120 h (number of subjects) [3, 6]: 46 | Rescue medication use, 0-120 h [3, 6]: 55% | Rescue medication use, 0-120 h (number of subjects) [3, 6]: 37 | Rescue medication use, 24-120 h [3, 6]: 54% | Rescue medication use, 24-120 h (number of subjects) [3, 6]: 36 | Vomiting, 0-120 h [3, 6]: 70% | Vomiting, 0-120 h (number of subjects) [3, 6]: 47 | Vomiting, 24-120 h [3, 6]: 55% | Vomiting, 24-120 h (number of subjects) [3, 6]: 37 | CR, 24-120 h [3, 7]: 57% | CR, 24-120 h (number of subjects) [3, 7]: 17 | Nausea, 24-120 h [3, 7]: 47% | Nausea, 24-120 h (number of subjects) [3, 7]: 14 | Rescue medication use, 24-120 h [3, 7]: 23% | Rescue medication use, 24-120 h (number of subjects) [3, 7]: 7 | Vomiting, 24-120 h [3, 7]: 43% | Vomiting, 24-120 h (number of subjects) [3, 7]: 13 | CR, 0-120 h [3, 8]: 27% | CR, 0-120 h (number of subjects) [3, 8]: 17 | CR, 24-120 h [3, 8]: 31% | CR, 24-120 h (number of subjects) [3, 8]: 20 | Nausea, 0-120 h [3, 8]: 77% | Nausea, 0-120 h (number of subjects) [3, 8]: 49 | Nausea, 24-120 h [3, 8]: 72% | Nausea, 24-120 h (number of subjects) [3, 8]: 46 | Rescue medication use, 0-120 h [3, 8]: 58% | Rescue medication use, 0-120 h (number of subjects) [3, 8]: 37 | Rescue medication use, 24-120 h [3, 8]: 56% | Rescue medication use, 24-120 h (number of subjects) [3, 8]: 36 | Vomiting, 0-120 h [3, 8]: 66% | Vomiting, 0-120 h (number of subjects) [3, 8]: 42 | Vomiting, 24-120 h [3, 8]: 58% | Vomiting, 24-120 h (number of subjects) [3, 8]: 37 | CR, 24-120 h [3, 9]: 47% | CR, 24-120 h (number of subjects) [3, 9]: 17 | Nausea, 24-120 h [3, 9]: 61% | Nausea, 24-120 h (number of subjects) [3, 9]: 22 | Rescue medication use, 24-120 h [3, 9]: 36% | Rescue medication use, 24-120 h (number of subjects) [3, 9]: 13 | Vomiting, 24-120 h [3, 9]: 47% | Vomiting, 24-120 h (number of subjects) [3, 9]: 17
